# From patent publication US20050238580A1 (priority 2002, published 2005)
# Target: T1, intestinal lactase (Homo sapiens, UniProt P09848)
# T1 construct: from tissue; host or cells: small-intestinal mucous membrane of living adult human volunteers (in vivo)
# Experiment: Excretion of xylose in urine of adult human volunteers after oral 4-galactosyl-xylose, colorimetric titration with fluoroglucinol
# Format: in vivo
# Experimental: The methodology consists of the oral administration of an aqueous solution of 4-galactosyl-xylose to humans after at least 8 hours of fasting. The amount of xylose present in the urine excreted is evaluated as of then, after a specific period of time. The methodology can be carried out likewise by evaluating the presence of xylose in blood evaluating it in plasma, or blood serum, prepared from a blood sample extracted after a period of time, after the intake of the disaccharide. The titration of xylose can be done by means of calorimetric analysis based on the reaction with fluoroglucinol and using as a target, either the basal urine or else the basal plasma or the basal blood serum, depending on the methodology that is used. Once the intake of 4-galactosyl-xylose has taken place, it is hydrolyzed by the intestinal lactase, in such a way that the products of this enzymatic reaction, galactose and xylose, are absorbed into the blood through the intestinal mucous membrane.
# 4-galactosyl-xylose is an in vivo substrate of human intestinal lactase. This has been shown in the first place by orally administering 1 g of 4-galactosyl-xylose dissolved in 50 ml of water to an adult volunteer (individual 1) who had fasted for 8 hours and with a normal tolerance to milk and milk products, in other words, with lactose tolerance. A basal urine sample was taken from this individual immediately before the intake of 4-galactosyl-xylose and urine was again collected after the intake thereof every hour for 8 hours, each sample showing the total urine excreted in each period of time. Xylose was titrated in all the samples by means of calorimetric analysis based on the reaction with fluoroglucinol and using basal urine as the target. […] The results of this experiment appear compiled in FIG. 3, where the amount of xylose evaluated in each sample is represented (white circles) and the amount of xylose that is being accumulated in urine over time is represented (black circles), calculated by adding to the amount of xylose evaluated in each sample, the amounts evaluated in all the preceding samples. In […] one can see: 1) That xylose is excreted in the urine of this individual after oral administration of 4-galactosyl-xylose; 2) That the excretion of xylose in urine was maximum after 2 hours and it was progressively accumulated in the urine after administration of this compound.
# Excretion of xylose in urine by adult human volunteers with lactose tolerance varies according to the amount of the 4-galactosyl-xylose intake. This has been shown by administering 0.25 g, 0.5 g and 3 g of 4-galactosyl-xylose to an adult volunteer with lactose tolerance (individual 1, Example 4) and to an adult volunteer with lactose tolerance (individual 2, Example 5) under the same conditions as those described in Example 1 and likewise titrating xylose calorimetrically with fluoroglucinol in the urine excreted by both volunteers over time after the intake of the disaccharide. A free period of around one week was left between each intake of 4-galactosyl-xylose by the same individual. […] The results of these experiments are compiled in FIG. 4 panel A (for individual 1 and Example 4) and in FIG. 4 panel B (for individual 2 and Example 5), wherein the amount of xylose accumulated in urine after the intake of 4-galactosyl-xylose for each administered dose is represented. FIG. 4A includes the data obtained with the same individual after an intake of 1 g of the disaccharide coming from FIG. 3 so that a comparison can be made with the rest of the administered doses. In these FIGS. 4A and 4B one can see: 1) That the excretion of xylose in urine over time after the intake of 4-galactosyl-xylose increased as the amount administered to individual 1 (FIG. 4A), as well as to individual 2 (FIG. 4B) increased; That a dose of 0.25 g 4-galactosyl-xylose permitted easy detection of the presence of xylose in urine in either of these two individuals. […]
# T1 sequence (P09848 869-1927): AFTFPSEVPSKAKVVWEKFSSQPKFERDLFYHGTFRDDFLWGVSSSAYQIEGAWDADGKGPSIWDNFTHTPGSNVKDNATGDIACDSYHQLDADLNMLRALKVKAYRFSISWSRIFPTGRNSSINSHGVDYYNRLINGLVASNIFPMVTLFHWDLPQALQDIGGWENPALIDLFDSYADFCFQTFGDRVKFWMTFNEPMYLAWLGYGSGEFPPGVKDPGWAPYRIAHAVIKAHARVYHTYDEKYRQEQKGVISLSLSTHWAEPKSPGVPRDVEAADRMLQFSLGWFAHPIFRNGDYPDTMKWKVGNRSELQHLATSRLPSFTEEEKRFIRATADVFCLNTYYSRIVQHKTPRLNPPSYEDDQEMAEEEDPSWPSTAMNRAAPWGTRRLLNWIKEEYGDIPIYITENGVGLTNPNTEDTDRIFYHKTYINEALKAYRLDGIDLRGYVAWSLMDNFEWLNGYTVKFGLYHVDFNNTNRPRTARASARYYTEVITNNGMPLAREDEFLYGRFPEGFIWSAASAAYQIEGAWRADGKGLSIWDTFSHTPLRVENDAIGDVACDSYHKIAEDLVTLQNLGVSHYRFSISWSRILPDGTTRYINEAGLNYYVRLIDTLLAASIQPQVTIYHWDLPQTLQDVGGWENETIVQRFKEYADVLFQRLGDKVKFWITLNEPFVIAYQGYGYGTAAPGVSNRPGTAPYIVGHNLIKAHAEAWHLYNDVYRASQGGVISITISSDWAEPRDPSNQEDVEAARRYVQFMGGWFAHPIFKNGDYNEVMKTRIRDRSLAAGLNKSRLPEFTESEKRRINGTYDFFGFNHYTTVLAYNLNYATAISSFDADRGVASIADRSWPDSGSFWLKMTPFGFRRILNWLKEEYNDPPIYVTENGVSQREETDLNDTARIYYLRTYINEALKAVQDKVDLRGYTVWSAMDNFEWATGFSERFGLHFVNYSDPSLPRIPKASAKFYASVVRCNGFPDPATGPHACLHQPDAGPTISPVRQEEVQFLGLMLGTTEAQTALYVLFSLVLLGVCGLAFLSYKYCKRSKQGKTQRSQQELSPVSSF
compound,measurement,setting,value
OCC1O[C@@H](O[C@@H]2COC(O)C(O)[C@H]2O)C(O)[C@@H](O)[C@H]1O (some centres unmarked),"total xylose in urine 8 hours after intake, average value","female volunteers with lactose tolerance, 0.25 g oral",23.5 ± 2.0 mg
same,reduction of xylose in urine versus average of tolerant females,"individual 5, 0.25 g oral, 8 hours",83%
same,total xylose in urine 8 hours after intake,"individual 5, person with lactose intolerance from birth, 0.25 g oral",4.08 mg
same,reduction of xylose in urine versus average of tolerant males,"individual 12, 0.25 g oral, 8 hours",96%
same,total xylose in urine 8 hours after intake,"individual 12, hypolactasic person with lactose intolerance, 0.25 g oral",1.33 mg
same,total xylose excreted in urine after 8 hours,"individual 13, person with allergy to milk components, 0.25 g oral",the same total amount as the average of females with lactose tolerance
same,dose dependence of excretion of xylose in urine,"individuals 1 and 2 with lactose tolerance, oral doses of 0.25 g, 0.5 g, 1 g and 3 g",increased with the amount
same,"total xylose in urine 8 hours after intake, average value","male volunteers with lactose tolerance, 0.25 g oral",35.7 ± 2.0 mg
